Results published in PubChem BioAssay (NCI).
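The compound was tested at five concentrations on cells cultured in 96-well plates, with a 48-hour exposure period. Abbreviation: GI50, concentration required for 50% inhibition of growth. TGI: total growth inhibition.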

Legend:
Experiment in all cases: NCI-60 cell line screen, 48 h
[1] = system: 786-0 renal
[2] = system: A498 renal
[3] = system: A549 NSCLC
[4] = system: ACHN renal
[5] = system: BT-549 breast
[6] = system: CAKI-1 renal
[7] = system: CCRF-CEM leukemia
[8] = system: COLO 205 colon
[9] = system: DU-145 prostate
[10] = system: EKVX NSCLC
[11] = system: HCC-2998 colon
[12] = system: HCT-116 colon
[13] = system: HCT-15 colon
[14] = system: HL-60(TB) leukemia
[15] = system: HOP-62 NSCLC
[16] = system: HOP-92 NSCLC
[17] = system: HS 578T breast
[18] = system: HT29 colon
[19] = system: IGROV1 ovarian
[20] = system: K-562 leukemia
[21] = system: KM12 colon
[22] = system: LOX IMVI melanoma
[23] = system: M14 melanoma
[24] = system: MALME-3M melanoma
[25] = system: MCF7 breast
[26] = system: MDA-MB-231 breast
[27] = system: MDA-MB-435
[28] = system: MDA-MB-468 breast
[29] = system: MOLT-4 leukemia
[30] = system: NCI-H226 lung
[31] = system: NCI-H23 lung
[32] = system: NCI-H460 lung
[33] = system: NCI-H522 lung
[34] = system: NCI/ADR-RES ovarian
[35] = system: OVCAR-3 ovarian
[36] = system: OVCAR-4 ovarian
[37] = system: OVCAR-5 ovarian
[38] = system: OVCAR-8 ovarian
[39] = system: PC-3 prostate
[40] = system: RPMI-8226 leukemia
[41] = system: SF-268 CNS
[42] = system: SF-295 CNS
[43] = system: SF-539 CNS
[44] = system: SK-MEL-2 melanoma
[45] = system: SK-MEL-28 melanoma
[46] = system: SK-MEL-5 melanoma
[47] = system: SK-OV-3 ovarian
[48] = system: SN12C renal
[49] = system: SNB-19 CNS
[50] = system: SNB-75 CNS
[51] = system: SR leukemia
[52] = system: SW-620 colon
[53] = system: T-47D breast
[54] = system: TK-10 renal
[55] = system: U251 CNS
[56] = system: UACC-257 melanoma
[57] = system: UACC-62 melanoma
[58] = system: UO-31 renal

**Q.** `COC(=O)c1ccc(-n2cc(CCCN(CCNc3ccnc4cc(Cl)ccc34)C(=O)CCC(=O)O[C@@H]3O[C@@H]4OC5(C)CC[C@H]6[C@H](C)CC[C@@H]([C@H]3C)[C@@]46OO5)nn2)cc1` was tested. Which GI50 [1] did it give?
**A.** 3.74 µM

**Q.** What about the TGI [1] of the same compound?
**A.** > 10.8 µM

**Q.** What about the GI50 [2] of the same compound?
**A.** > 10.8 µM

**Q.** What about the TGI [2] of the same compound?
**A.** > 10.8 µM

**Q.** What about the GI50 [3] of the same compound?
**A.** 1790 nM

**Q.** And the TGI [3]?
**A.** > 10.8 µM

**Q.** What about the GI50 [4] of the same compound?
**A.** 1870 nM

**Q.** And the TGI [4]?
**A.** > 10.8 µM

**Q.** And the GI50 [5]?
**A.** 541 nM

**Q.** What about the TGI [5] of the same compound?
**A.** > 10.8 µM

**Q.** What about the GI50 [6] of the same compound?
**A.** 6.83 µM

**Q.** What about the TGI [6] of the same compound?
**A.** > 10.8 µM

**Q.** And the GI50 [7]?
**A.** 506 nM

**Q.** What about the TGI [7] of the same compound?
**A.** > 10.8 µM

**Q.** What about the GI50 [8] of the same compound?
**A.** 355 nM

**Q.** And the TGI [8]?
**A.** > 10.8 µM

**Q.** What about the GI50 [9] of the same compound?
**A.** > 10.8 µM

**Q.** What about the TGI [9] of the same compound?
**A.** > 10.8 µM

**Q.** And the GI50 [10]?
**A.** 827 nM

**Q.** And the TGI [10]?
**A.** > 10.8 µM

**Q.** And the GI50 [11]?
**A.** 2000 nM

**Q.** And the TGI [11]?
**A.** > 10.8 µM

**Q.** And the GI50 [12]?
**A.** 155 nM

**Q.** What about the TGI [12] of the same compound?
**A.** > 10.8 µM

**Q.** What about the GI50 [13] of the same compound?
**A.** 246 nM

**Q.** And the TGI [13]?
**A.** 2130 nM

**Q.** And the GI50 [14]?
**A.** 334 nM

**Q.** What about the TGI [14] of the same compound?
**A.** 1600 nM

**Q.** What about the GI50 [15] of the same compound?
**A.** > 10.8 µM

**Q.** What about the TGI [15] of the same compound?
**A.** > 10.8 µM

**Q.** What about the GI50 [16] of the same compound?
**A.** 280 nM

**Q.** And the TGI [16]?
**A.** 2820 nM

**Q.** And the GI50 [17]?
**A.** 751 nM

**Q.** What about the TGI [17] of the same compound?
**A.** > 10.8 µM

**Q.** And the GI50 [18]?
**A.** 519 nM

**Q.** And the TGI [18]?
**A.** > 10.8 µM

**Q.** What about the GI50 [19] of the same compound?
**A.** 1880 nM

**Q.** And the TGI [19]?
**A.** > 10.8 µM

**Q.** And the GI50 [20]?
**A.** 247 nM

**Q.** And the TGI [20]?
**A.** 7.23 µM

**Q.** What about the GI50 [21] of the same compound?
**A.** 319 nM

**Q.** What about the TGI [21] of the same compound?
**A.** > 10.8 µM

**Q.** And the GI50 [22]?
**A.** 429 nM

**Q.** What about the TGI [22] of the same compound?
**A.** 6 µM

**Q.** What about the GI50 [23] of the same compound?
**A.** 2650 nM

**Q.** And the TGI [23]?
**A.** > 10.8 µM

**Q.** What about the GI50 [24] of the same compound?
**A.** 1250 nM

**Q.** What about the TGI [24] of the same compound?
**A.** 2750 nM

**Q.** What about the GI50 [25] of the same compound?
**A.** 444 nM

**Q.** And the TGI [25]?
**A.** 2320 nM

**Q.** What about the GI50 [26] of the same compound?
**A.** 6.84 µM

**Q.** What about the TGI [26] of the same compound?
**A.** > 10.8 µM

**Q.** And the GI50 [27]?
**A.** 508 nM

**Q.** And the TGI [27]?
**A.** 3.63 µM

**Q.** What about the GI50 [28] of the same compound?
**A.** 619 nM

**Q.** What about the TGI [28] of the same compound?
**A.** 10.3 µM

**Q.** What about the GI50 [29] of the same compound?
**A.** 216 nM

**Q.** And the TGI [29]?
**A.** 4.45 µM

**Q.** And the GI50 [30]?
**A.** 1110 nM

**Q.** And the TGI [30]?
**A.** > 10.8 µM

**Q.** And the GI50 [31]?
**A.** 633 nM

**Q.** What about the TGI [31] of the same compound?
**A.** > 10.8 µM

**Q.** And the GI50 [32]?
**A.** 6.15 µM

**Q.** And the TGI [32]?
**A.** > 10.8 µM

**Q.** And the GI50 [33]?
**A.** 442 nM

**Q.** And the TGI [33]?
**A.** > 10.8 µM

**Q.** And the GI50 [34]?
**A.** 1760 nM

**Q.** What about the TGI [34] of the same compound?
**A.** > 10.8 µM

**Q.** What about the GI50 [35] of the same compound?
**A.** 397 nM

**Q.** And the TGI [35]?
**A.** > 10.8 µM

**Q.** And the GI50 [36]?
**A.** 546 nM

**Q.** And the TGI [36]?
**A.** > 10.8 µM

**Q.** And the GI50 [37]?
**A.** 796 nM

**Q.** What about the TGI [37] of the same compound?
**A.** > 10.8 µM

**Q.** And the GI50 [38]?
**A.** 550 nM

**Q.** What about the TGI [38] of the same compound?
**A.** 3.85 µM

**Q.** What about the GI50 [39] of the same compound?
**A.** 91.7 nM

**Q.** And the TGI [39]?
**A.** > 10.8 µM

**Q.** What about the GI50 [40] of the same compound?
**A.** 189 nM

**Q.** What about the TGI [40] of the same compound?
**A.** > 10.8 µM

**Q.** And the GI50 [41]?
**A.** 2580 nM

**Q.** What about the TGI [41] of the same compound?
**A.** > 10.8 µM

**Q.** What about the GI50 [42] of the same compound?
**A.** 3.24 µM

**Q.** And the TGI [42]?
**A.** > 10.8 µM

**Q.** What about the GI50 [43] of the same compound?
**A.** 3.15 µM

**Q.** And the TGI [43]?
**A.** > 10.8 µM

**Q.** What about the GI50 [44] of the same compound?
**A.** 2400 nM

**Q.** What about the TGI [44] of the same compound?
**A.** > 10.8 µM

**Q.** And the GI50 [45]?
**A.** 1330 nM

**Q.** What about the TGI [45] of the same compound?
**A.** > 10.8 µM

**Q.** What about the GI50 [46] of the same compound?
**A.** 755 nM

**Q.** What about the TGI [46] of the same compound?
**A.** 2410 nM

**Q.** And the GI50 [47]?
**A.** > 10.8 µM

**Q.** What about the TGI [47] of the same compound?
**A.** > 10.8 µM

**Q.** And the GI50 [48]?
**A.** 1680 nM

**Q.** What about the TGI [48] of the same compound?
**A.** > 10.8 µM

**Q.** What about the GI50 [49] of the same compound?
**A.** > 10.8 µM

**Q.** And the TGI [49]?
**A.** > 10.8 µM

**Q.** And the GI50 [50]?
**A.** 1010 nM

**Q.** And the TGI [50]?
**A.** > 10.8 µM

**Q.** What about the GI50 [51] of the same compound?
**A.** 314 nM

**Q.** And the TGI [51]?
**A.** 4.09 µM

**Q.** What about the GI50 [52] of the same compound?
**A.** 375 nM

**Q.** What about the TGI [52] of the same compound?
**A.** > 10.8 µM

**Q.** What about the GI50 [53] of the same compound?
**A.** 254 nM

**Q.** And the TGI [53]?
**A.** > 10.8 µM

**Q.** What about the GI50 [54] of the same compound?
**A.** > 10.8 µM

**Q.** And the TGI [54]?
**A.** > 10.8 µM

**Q.** And the GI50 [55]?
**A.** 805 nM

**Q.** And the TGI [55]?
**A.** > 10.8 µM

**Q.** What about the GI50 [56] of the same compound?
**A.** 890 nM

**Q.** And the TGI [56]?
**A.** > 10.8 µM

**Q.** And the GI50 [57]?
**A.** 720 nM

**Q.** And the TGI [57]?
**A.** > 10.8 µM

**Q.** What about the GI50 [58] of the same compound?
**A.** 1030 nM

**Q.** And the TGI [58]?
**A.** > 10.8 µM
